Measured values: patent US20260272850A1, “Cannabinoid Dosing Regime for Acne” (priority 2018, published 2026)
Read-outs that look alike come from different tables or passages of the source.

Legend:
[1] = Open-label study in patients with acne vulgaris: study drug (CBD) plasma levels; assay type: in vivo, human; conditions: throughout the study, 225 mg CBD/day topical
Source text: Subjects returned to the clinic on Day 14 for vital signs, cutaneous tolerability assessments, and a blood draw for study drug plasma levels. Subjects were also queried for adverse events (AEs) and changes in concomitant medications. Diaries and study drug were returned and reviewed for compliance. In addition, the subject applied their morning dose of study drug during the visit for the clinical site to confirm correct application techniques. Another 14 days of study drug were dispensed along with the diary for the last two weeks of study drug treatment. […]
Safety was the primary outcome measure. The safety outcomes were measured through assessment of: • AEs monitored from time of consent through the end of study. • Cutaneous tolerability (erythema, scaling, dryness, burning/stinging, and irritant/allergic contact dermatitis) collected at Baseline, Day 14, Day 28, and Day 35 and graded using the following scale: 0, None; 1, Slight; 2, Moderate; 3, Severe. • Vital signs (temperature, blood pressure, and pulse) obtained at Baseline, Day 14, Day 28 and Day 35. • Complete blood count (CBC), chemistry, and urinalysis at Baseline and at Day 28. Blood levels of study drug will be measured at Baseline and prior to dosing (trough level) on Day 14, Day 28, and Day 35. […]

skin of minipigs = test: 28-day study in minipigs: dermal tolerability and exposure; assay type: in vivo; conditions: no observed effect in minipigs
Procedure: This dose level is well below that tested and shown to be well-tolerated in a 28-day study in minipigs. Specifically, the NOAEL for dermal tolerability of BTX 1503 5% (w/w) on the skin of minipigs was 3.0 mg/cm^2/day (150 mg/kg/day), which is ~7.5 times the daily dose delivered in this study. In addition, based on the ratio of the mean Cmax observed in the 28-day minipig study to the mean Cmax in the 3 mL BID cohort in the Phase 1 a healthy volunteer study, there was >300 times the level of CBD, with no observed effect, in the minipigs.

[2] = target: human vanilloid receptor type 1 (VR1) (Homo sapiens, UniProt Q8NER1); conditions: in vitro; cited from earlier work
Sequence of human vanilloid receptor type 1 (VR1) (Q8NER1 whole entry): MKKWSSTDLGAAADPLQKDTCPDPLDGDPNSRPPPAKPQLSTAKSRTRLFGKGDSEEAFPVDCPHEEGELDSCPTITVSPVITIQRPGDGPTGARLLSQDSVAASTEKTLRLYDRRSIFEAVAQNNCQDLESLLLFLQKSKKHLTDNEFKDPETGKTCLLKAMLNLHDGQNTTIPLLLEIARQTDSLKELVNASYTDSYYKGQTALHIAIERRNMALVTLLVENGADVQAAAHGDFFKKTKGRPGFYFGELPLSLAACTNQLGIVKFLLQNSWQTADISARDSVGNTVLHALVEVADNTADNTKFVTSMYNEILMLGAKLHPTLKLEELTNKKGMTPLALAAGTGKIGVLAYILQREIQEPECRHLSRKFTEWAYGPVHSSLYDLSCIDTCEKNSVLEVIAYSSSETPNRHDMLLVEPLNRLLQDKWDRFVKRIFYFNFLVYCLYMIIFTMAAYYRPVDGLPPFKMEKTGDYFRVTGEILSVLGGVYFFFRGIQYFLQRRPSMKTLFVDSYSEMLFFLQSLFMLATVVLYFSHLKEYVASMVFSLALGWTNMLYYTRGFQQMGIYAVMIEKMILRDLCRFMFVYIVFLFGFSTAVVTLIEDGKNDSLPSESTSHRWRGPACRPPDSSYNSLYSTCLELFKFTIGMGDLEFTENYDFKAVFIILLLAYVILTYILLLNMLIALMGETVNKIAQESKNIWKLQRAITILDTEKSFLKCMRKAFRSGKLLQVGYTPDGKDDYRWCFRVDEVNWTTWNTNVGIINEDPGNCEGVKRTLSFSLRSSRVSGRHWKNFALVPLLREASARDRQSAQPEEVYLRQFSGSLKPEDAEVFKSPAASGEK

sensitized guinea-pigs = conditions: intravenous administration; cited from earlier work
[3] = Healthy volunteer study of single and multiple-dose BTX 1503 5% Solution (BTX.2017.001): pharmacokinetics; assay type: in vivo, human (healthy volunteers); conditions: for Tmax: Day 1; for Cmax: topical or ocular, topical, Day 1, plasma CBD, read-out: mean Cmax after the first dose
Procedure: The pharmacokinetics (PK) of single and multiple-dose administration of BTX 1503 5% Solution were evaluated in a healthy volunteer study. In this study, BTX 1503 5% Solution was applied as a single dose either QD or BID (12 hrs apart) on Day 1 followed by a 6-day washout period, then either QD or BID for 14 days (Day 8 to Day 21). Five subjects were enrolled in each cohort and doses were escalated for each sequential cohort enrolled with the following doses. • Cohort 1: 37.5 mg CBD/day or 0.066 mg/cm^2/day applied as 1 mL of BTX 1503 5% (w/w) QD • Cohort 2: 75 mg CBD/day or 0.133 mg/cm^2/day applied as 1 mL BTX 1503 5% (w/w) BID • Cohort 3: 112.5 mg CBD/day or 0.199 mg/cm^2/day applied as 3 mL of BTX 1503 5% (w/w) QD • Cohort 4: 225 mg CBD/day or 0.398 mg/cm^2/day applied as 3 mL of BTX 1503 5% (w/w) BID Area of application assumed to be 565 cm^2 (i.e., on the face), which is reported by the European Union Scientific Committee on Consumer Safety (SCCS) to be half of the surface area for a female head (SCCS Notes of Guidance for the Testing of Cosmetic Substances and Their Safety Evaluation, 8th edition, 2012; Table 2).
Blood samples were taken for PK assessments on Day 1 (Baseline) at pre-dose (15 mins before dosing), 30, 60 and 90 mins and 2, 2.5, 3, 4, 6, 8 and 12 hrs, and 24 hrs after the first single dose. For participants that received BID dosing, samples were also taken at 30, 60 and 90 mins and 2, 2.5, 3, 4, 6, and 8 hrs after the second dose on Day 1.
During the multiple dose (14-day) phase, trough levels were obtained before the morning application on Day 15. On Day 21, blood samples were taken for PK assessments at pre-dose (15 mins before dosing), 30, 60 and 90 mins and 2, 2.5, 3, 4, 6, 8 and 12 hrs, 24 hrs and 48 hrs after the morning dose. For participants that received BID dosing, samples were also be taken at 30, 60 and 90 mins and 2, 2.5, 3, 4, 6, and 8 hrs after the second dose on Day 21. A sample was obtained on Day 23, 48 hrs after the last morning dose.

[4] = Franz-type diffusion cell skin permeation of CBD from BTX 1503 5% Solution; assay type: in vitro ADME; conditions: 48 hours; equivalent of ng/g of tissue
Procedure: Dermatomed skin from a single donor was mounted in a Franz-type diffusion cell (0.55 cm^2 receptor fluid exposure surface area) and dosed with 5 ul of 2-[3-methyl-6-(1-methylethenyl)-2-cyclohexen-1-yl]-5-pentyl-1,3-benzenediol (CBD), BTX 1503 5% Solution, formulated in an mixture of a volatile solvent (hexylmethyldisiloxane/polymethylsiloxane—93% w/w), and residual solvent (arlamol E—2% w/w) at a concentration of 5.0% (w/w; 35.5 mg/ml). Following dosing, receptor phase samples were collected at 4, 10, 24 and 48 hours; after which the study was terminated.
The residual formulation was removed by tape stripping and the epidermis and dermis separated by blunt dissection. The levels of CBD in the epidermis, dermis, and receptor fluid samples were then analyzed using a bioanalytical method with LC-MS/MS detection.

[5] = tested on: immortalized human sebocytes; conditions: cited from earlier work
rats = conditions: injected; cited from earlier work

For `C=C(C)C1CCC(C)=CC1c1c(O)cc(CCCCC)cc1O` (centres unmarked) [CBD, 2-[3-methyl-6-(1-methylethenyl)-2-cyclohexen-1-yl]-5-pentyl-1,3-benzenediol], the “Study drug (CBD) plasma levels” value [1] is given as “low”, the “ratio of mean Cmax in 28-day minipig study to mean Cmax in 3 mL BID healthy volunteer cohort” value (skin of minipigs) is given as greater than 300 times and the “effect on VR1” value [2] is given as “stimulate”. The “effect on airway obstruction” value (sensitized guinea-pigs) was “reduced airway obstruction”, the “mean pre-dose level on Day 21” value ([3]; Cohort 1) was 0.545 ng/mL and the “mean pre-dose level on Day 21” value ([3]; Cohort 2) was 0.770 ng/mL. For the same compound, the “mean pre-dose level on Day 21” value ([3]; Cohort 3) was 0.715 ng/mL, the “mean pre-dose level on Day 21” value ([3]; Cohort 4) was 1.553 ng/mL and the concentration at 15 study day ([3]; human, in vivo, 75 mg CBD/day, Cohort 2, 75 mg CBD/day, multiple dose phase, read-out: mean CBD trough level on Day 15) was 0.781 ng/mL. For the same compound, the concentration at 15 study day ([3]; human, in vivo, 112.5 mg CBD/day, Cohort 3, 112.5 mg CBD/day, multiple dose phase, read-out: mean CBD trough level on Day 15) was 0.525 ng/mL, the concentration at 15 study day ([3]; human, in vivo, 225 mg CBD/day, Cohort 4, 225 mg CBD/day, multiple dose phase, all subjects, read-out: mean CBD trough level on Day 15) was 2.11 ng/mL and the concentration at 15 study day ([3]; human, in vivo, 225 mg CBD/day, Cohort 4, one outlier, read-out: CBD trough level on Day 15, outlier subject) was 5.99 ng/mL. For the same compound, the concentration at 15 study day ([3]; human, in vivo, 225 mg CBD/day, Cohort 4, without the outlier subject, read-out: mean CBD trough level on Day 15) was 1.16 ng/mL, the Tmax ([3]; human, in vivo, after BID dosing) was 18 to 20 h and the Tmax ([3]; human, in vivo, after QD dosing) was 12 h. It also gave a concentration at 7 days ([3]; human, in vivo, all cohorts, study Day 8, seven days after initial dosing, read-out: Levels of CBD (below the limits of quantitation)) of less than 0.2 ng/mL, a Cmax ([3]; human, in vivo, Cohort 1: 37.5 mg CBD/day, 1 mL BTX 1503 5% QD) of 0.309 ng/mL and a Cmax ([3]; human, in vivo, Cohort 2: 75 mg CBD/day, 1 mL BTX 1503 5% BID) of 0.562 ng/mL. For the same compound, the Cmax ([3]; human, in vivo, Cohort 3: 112.5 mg CBD/day, 3 mL BTX 1503 5% QD) was 0.626 ng/mL, the Cmax ([3]; human, in vivo, Cohort 4: 225 mg CBD/day, 3 mL BTX 1503 5% BID) was 0.876 ng/mL and the dermis concentration [4] was ~ 1,933 ng/mL. The effects on sebocytes [5] was “lipostatic, anti-proliferative, and anti-inflammatory effects” and the “effect on cardiac inflammation” value (rats) was “attenuated cardiac inflammation”.
